Measurements: PubChem BioAssay (NCI)
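Five compound concentrations were applied to cells in 96-well plates for 48 hours; endpoints were derived by simple linear interpolation of the resulting dose-response curve. At the GI50, growth is halved. TGI is the concentration that stops growth completely.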

Columns and labels:
Assay in all cases: NCI tumour cell line growth inhibition, 48 h
HOP-62 NSCLC = tested on: HOP-62 NSCLC
A549 NSCLC = tested on: A549 NSCLC
SF-539 CNS = tested on: SF-539 CNS
MCF7 breast = tested on: MCF7 breast
A498 renal = tested on: A498 renal
HCC-2998 colon = tested on: HCC-2998 colon
NCI-H460 lung = tested on: NCI-H460 lung
SR leukemia = tested on: SR leukemia
SK-MEL-28 melanoma = tested on: SK-MEL-28 melanoma
BT-549 breast = tested on: BT-549 breast

Row | SMILES | GI50 (HOP-62 NSCLC) | TGI (HOP-62 NSCLC) | GI50 (A549 NSCLC) | TGI (A549 NSCLC) | GI50 (SF-539 CNS) | TGI (SF-539 CNS) | GI50 (MCF7 breast) | TGI (MCF7 breast) | GI50 (A498 renal) | TGI (A498 renal) | GI50 (HCC-2998 colon) | TGI (HCC-2998 colon) | GI50 (NCI-H460 lung) | TGI (NCI-H460 lung) | GI50 (SR leukemia) | TGI (SR leukemia) | GI50 (SK-MEL-28 melanoma) | TGI (SK-MEL-28 melanoma) | GI50 (BT-549 breast) | TGI (BT-549 breast)
1 | Nc1ccccc1C#C/C=C\C#Cc1ccccc1OC(F)(F)F | 6.1 µM | 20.6 µM | 5.99 µM | > 100 µM | 3.5 µM | 13.3 µM | 3.67 µM | > 100 µM | 3.93 µM | 14 µM | 2.93 µM | 14.7 µM | 3.78 µM | 17.3 µM | 1.63 µM | 13.9 µM | 7.55 µM | 36.8 µM | 5.78 µM | 22.5 µM
2 | O=[N+]([O-])c1cccc(-c2csc(NNC3=NC/C(=C/c4ccc5c(c4)OCO5)S3)n2)c1 |  | > 100 µM |  | > 100 µM |  | > 100 µM |  | > 100 µM |  | 37 µM |  | > 100 µM |  | > 100 µM |  |  |  |  |  | > 100 µM
3 | Cc1ccc2c(C)c3c(ccc4ccccc43)c[n+]2c1 | 5.93 µM | 24.7 µM | 3.85 µM | > 100 µM | 13.8 µM | 28.2 µM | 0.629 µM | 25.9 µM | 5.85 µM | > 100 µM | 8.06 µM | 25.5 µM | 5.1 µM | 25.1 µM | 3.75 µM | 22.9 µM | 4.68 µM | 18.4 µM | 3.57 µM | 16.6 µM
4 | Cn1cc(C2=C(c3c4n(c5ccccc35)CCCCC4)C(=O)NC2=O)c2ccccc21 | > 12.5 µM | > 25 µM | 3.72 µM | > 25 µM | 2.86 µM | 15.5 µM | 1.36 µM | > 25 µM | 1.05 µM | 19.4 µM | 12.4 µM | > 25 µM | 6.51 µM | > 25 µM | 1.19 µM | > 20.9 µM | 12.6 µM | > 25 µM | > 11.7 µM | > 25 µM
5 | NS(=O)(=O)c1ccc2c(c1)OCCOCCOCCOCCO2 |  | > 100 µM |  | > 100 µM |  | > 100 µM |  | > 100 µM |  | > 100 µM |  | > 100 µM |  | > 100 µM |  | > 100 µM |  | > 100 µM |  | > 100 µM
6 | OC1CSSC1Cn1cnc2c(Nc3ccc(OCc4cccc(F)c4)c(Cl)c3)ncnc21 (stereo unspecified) | 0.94 µM | 2.79 µM | 0.742 µM | 1.88 µM | 1.89 µM | 7.67 µM | 0.509 µM | 1.29 µM | 6.17 µM | 12.4 µM | 0.952 µM | 3.49 µM | 0.171 µM | 0.667 µM | 0.407 µM | 1.59 µM | 0.591 µM | 4.64 µM | 4.98 µM | 12.1 µM
7 | COc1cc2c(cc1OCCCCN1CCN(CC(=O)Nc3ccc(Cl)cc3C(=O)c3ccccc3Cl)CC1)N=CC1CCCN1C2=O (stereo unspecified) | 0.196 µM | 0.411 µM |  |  | 0.236 µM | 0.501 µM | 0.167 µM | 0.567 µM | 0.194 µM | 0.364 µM | 0.194 µM | 0.343 µM | 0.228 µM | 0.517 µM | 0.138 µM | 0.456 µM | 0.229 µM | 0.453 µM | 0.292 µM | 0.799 µM
8 | CCOC(=O)Cn1c(C(F)(F)F)nc2nc(Cl)c(Cl)nc21 |  | 60.4 µM |  | > 100 µM |  | > 85.4 µM |  | > 87.4 µM |  | > 74 µM |  |  |  | > 100 µM |  | > 100 µM |  | > 100 µM |  | > 100 µM
9 | CC1CCc2nc[nH]c(=O)c21 (stereo unspecified) | > 100 µM | > 100 µM | > 100 µM | > 100 µM | > 100 µM | > 100 µM | > 100 µM | > 100 µM | > 100 µM | > 100 µM | > 100 µM | > 100 µM | > 100 µM | > 100 µM |  |  | > 100 µM | > 100 µM | > 100 µM | > 100 µM
10 | COc1cnc2c(c1)C(=O)c1c-2n(CCCN2CCOCC2)c(=O)c2cc(F)ccc12 | 0.187 µM | 0.991 µM |  |  | 0.288 µM | 1.08 µM |  |  | 0.172 µM | 0.911 µM | 2.75 µM | > 100 µM | 0.0573 µM | 0.487 µM | 0.0829 µM | 1.27 µM | 1.2 µM | > 100 µM | 0.523 µM | > 100 µM
11 | O=C(Nc1ccc(F)cc1)Nc1ccc(Cl)c([N+](=O)[O-])c1 | 3.78 µM | 15.9 µM | 3.09 µM | 16.3 µM | 3.86 µM | 14.3 µM | 2.66 µM | 11.9 µM | 1.8 µM | 5.78 µM | 3.71 µM | 14.3 µM | 2.72 µM | 11.5 µM | 3.41 µM | > 100 µM | 3.77 µM | 14.2 µM | 2.9 µM | 10.8 µM
12 | O=C(Nc1ccc(-n2ccc3c(NC(=O)c4ccccc4)nccc32)cc1)c1ccc(Cl)c(C(F)(F)F)c1 | 3.4 µM | 13.2 µM | 0.318 µM | 8.45 µM | 0.273 µM | 14.4 µM | 0.288 µM | 1.24 µM | 6.1 µM | 33.1 µM | 1.6 µM | 10.4 µM | 0.0442 µM | 1.2 µM | 0.0545 µM | > 12.7 µM | 4.99 µM | 14.1 µM | 6.5 µM | > 50 µM
13 | COC(=O)CC[N+]1=CCC(c2ccccc2)(c2ccccc2)O1 |  | > 100 µM |  | > 100 µM |  | > 100 µM |  | > 100 µM |  | > 100 µM |  | > 100 µM |  | > 100 µM |  |  |  | > 100 µM |  | > 100 µM
14 | Cc1ccc(NC(=O)Nc2ccc(-c3cccnc3)cc2N2CCC(CO)CC2)cc1 | 2.41 µM | > 100 µM | 3.18 µM | > 100 µM | 1.68 µM | 4.67 µM | 1.59 µM | > 100 µM |  |  | 3.21 µM | > 100 µM | 3.19 µM | > 100 µM | 2.83 µM | > 100 µM | 1.49 µM | 5.42 µM | 1.96 µM | 9.2 µM
